From patent US12421211B2, “Heterocyclic compounds” (Hoffmann-La Roche Inc., priority 2021, dated 2025)
Structures can show the parent of a compound that is named as a salt. Where two headings read alike, the source gives them in different places.

System: Acinetobacter baumannii ATCC17961
Assay: Antimicrobial susceptibility testing: 90% growth inhibitory concentration (IC90) determination
Type: cell-based
Settings: Acinetobacter baumannii, ATCC17961, 16 h, read-out: ATCC 17961 IC90
Experimental: Assay Procedures Antimicrobial Susceptibility Testing: 90% Growth Inhibitory Concentration (IC90) Determination
The in vitro antimicrobial activity of the compounds was determined according to the following procedure:
The assay used a 10-points Iso-Sensitest broth medium to measure quantitatively the in vitro activity of the compounds against Acinetobacter baumannii ATCC17961.
Stock compounds in DMSO were serially twofold diluted (e.g. range from 50 to 0.097 μM final concentration) in 384 wells microtiter plates and inoculated with 49 μl the bacterial suspension in Iso-Sensitest medium to have a final cell concentration of ˜5×10^(5) CFU/ml in a final volume/well of 50 ul/well. Microtiter plates were incubated at 35±2° C.
Bacterial cell growth was determined with the measurement of optical density at λ=600 nm each 20 minutes over a time course of 16h. Growth inhibition was calculated during the logarithmic growth of the bacterial cells with determination of the concentration inhibiting 50% (IC50) and 90% (IC90) of the growth.
Table 1 provides the 90% growth inhibitory concentrations (IC90) in micromoles per liter of the compounds of present invention obtained against the strain Acinetobacter baumannii ATCC17961.

[1] = 90% growth inhibitory concentration, Acinetobacter baumannii ATCC17961, Iso-Sensitest broth, OD 600 nm over 16 h

Row | IC90 [1] [nM] | SMILES | IC90 [nM]
1 |  | COCCn1nc(C)c(-c2ccc(-c3cnc(C(=O)Nc4ccc(C(=O)N5CCN(C(=O)C6CC[N+](C)(CCOC)CC6)CC5)c(Cl)c4)n3C)c(F)c2F)c1C (stereo not shown) [Example B9, N-[3-chloro-4-[4-[1-(2-methoxyethyl)-1-methyl-piperidin-1-ium-4-carbonyl]piperazine-1-carbonyl]phenyl]-5-[2,3-difluoro-4-[1-(2-methoxyethyl)-3,5-dimethyl-pyrazol-4-yl]phenyl]-1-methyl-imidazole-2-carboxamide; formate] | 510
2 |  | COCCn1nc(C)c(-c2ccc(-c3cnc(C(=O)Nc4ccc(C(=O)N5CCN(C(=O)C6CC[N+](C)(CC(N)=O)CC6)CC5)c(Cl)c4)n3C)cc2)c1C (stereo not shown) [Example B10, N-[4-[4-[1-(2-amino-2-oxo-ethyl)-1-methyl-piperidin-1-ium-4-carbonyl]piperazine-1-carbonyl]-3-chloro-phenyl]-5-[4-[1-(2-methoxyethyl)-3,5-dimethyl-pyrazol-4-yl]phenyl]-1-methyl-imidazole-2-carboxamide; formate] | 200
3 |  | COCCn1nc(C)c(-c2ccc(-c3cnc(C(=O)Nc4ccc(C(=O)N5CCN(C(=O)C6CC[N+](C)(CCO)CC6)CC5)c(Cl)c4)n3C)cc2)c1C (stereo not shown) [Example B11, N-[3-chloro-4-[4-[1-(2-hydroxyethyl)-1-methyl-piperidin-1-ium-4-carbonyl]piperazine-1-carbonyl]phenyl]-5-[4-[1-(2-methoxyethyl)-3,5-dimethyl-pyrazol-4-yl]phenyl]-1-methyl-imidazole-2-carboxamide; formate] | 170
4 |  | COCCn1ncc(-c2ccc(-c3cnc(C(=O)Nc4ccc(C(=O)N5CCN(C(=O)C6CC[N+](C)(CCO)CC6)CC5)c(Cl)c4)n3C)c(F)c2F)c1C (stereo not shown) [Example B12, N-[3-chloro-4-[4-[1-(2-hydroxyethyl)-1-methyl-piperidin-1-ium-4-carbonyl]piperazine-1-carbonyl]phenyl]-5-[2,3-difluoro-4-[1-(2-methoxyethyl)-5-methyl-pyrazol-4-yl]phenyl]-1-methyl-imidazole-2-carboxamide; formate] | 110
5 | 810 | COCCn1ncc(-c2ccc(-c3cnc(C(=O)Nc4ccc(C(=O)N5CCC(C(=O)N6CC[N+](C)(CC(=O)O)CC6)CC5)c(Cl)c4)n3C)c(F)c2F)c1C [Example B13, 2-[4-[1-[2-chloro-4-[[5-[2,3-difluoro-4-[1-(2-methoxyethyl)-5-methyl-pyrazol-4-yl]phenyl]-1-methyl-imidazole-2-carbonyl]amino]benzoyl]piperidine-4-carbonyl]-1-methyl-piperazin-1-ium-l-yl]acetic acid; 2,2,2-trifluoroacetate] | 
6 | 170 | COCCn1ncc(-c2ccc(-c3cnc(C(=O)Nc4ccc(C(=O)N5CCC(C(=O)N6CC[N+](C)(CC(N)=O)CC6)CC5)c(Cl)c4)n3C)c(F)c2F)c1C [Example B15, N-[4-[4-[4-(2-amino-2-oxo-ethyl)-4-methyl-piperazin-4-ium-1-carbonyl]piperidine-1-carbonyl]-3-chloro-phenyl]-5-[2,3-difluoro-4-[1-(2-methoxyethyl)-5-methyl-pyrazol-4-yl]phenyl]-1-methyl-imidazole-2-carboxamide; formate] | 
7 |  | COCCn1ncc(-c2ccc(-c3cnc(C(=O)Nc4ccc(C(=O)N5CCN(C(=O)C6CC[N+](C)(CC(=O)NN)CC6)CC5)c(Cl)c4)n3C)c(F)c2F)c1C (stereo not shown) [Example B17, N-[3-chloro-4-[4-[1-(2-hydrazino-2-oxo-ethyl)-1-methyl-piperidin-1-ium-4-carbonyl]piperazine-1-carbonyl]phenyl]-5-[2,3-difluoro-4-[1-(2-methoxyethyl)-5-methyl-pyrazol-4-yl]phenyl]-1-methyl-imidazole-2-carboxamide; formic acid; formate] | 260
8 |  | COCCn1cc(-c2ccc(-c3cnc(C(=O)Nc4ccc(C(=O)N5CCN(C(=O)C6CC[N+](CC(=O)O)(CC7CNC7)CC6)CC5)c(Cl)c4)n3C)c(F)c2F)c(C)n1 (stereo not shown) [Example B18, 2-[1-(azetidin-3-ylmethyl)-4-[4-[2-chloro-4-[[5-[2,3-difluoro-4-[1-(2-methoxyethyl)-3-methyl-pyrazol-4-yl]phenyl]-1-methyl-imidazole-2-carbonyl]amino]benzoyl]piperazine-1-carbonyl]piperidin-1-ium-1-yl]acetic acid; formic acid; formate] | 430
9 | 220 | COCCn1ncc(-c2ccc(-c3cnc(C(=O)Nc4ccc(C(=O)N5CCN(C(=O)C6CC[N+](CC(=O)O)(CC7CNC7)CC6)CC5)c(Cl)c4)n3C)c(F)c2F)c1C (stereo not shown) [Example B20, 2-[1-(azetidin-3-ylmethyl)-4-[4-[2-chloro-4-[[5-[2,3-difluoro-4-[1-(2-methoxyethyl)-5-methyl-pyrazol-4-yl]phenyl]-1-methyl-imidazole-2-carbonyl]amino]benzoyl]piperazine-1-carbonyl]piperidin-1-ium-1-yl]acetic acid; formic acid; formate] | 
10 | 100 | COCCn1ncc(-c2ccc(-c3cnc(C(=O)Nc4ccc(C(=O)N5CCN(C(=O)C6CC[N+](C)(CC7CNC7)CC6)CC5)c(Cl)c4)n3C)c(F)c2F)c1C (stereo not shown) [Example B21, N-[4-[4-[1-(azetidin-3-ylmethyl)-1-methyl-piperidin-1-ium-4-carbonyl]piperazine-1-carbonyl]-3-chloro-phenyl]-5-[2,3-difluoro-4-[1-(2-methoxyethyl)-5-methyl-pyrazol-4-yl]phenyl]-1-methyl-imidazole-2-carboxamide; formic acid; formate] | 
11 | 330 | COCCn1ncc(-c2ccc(-c3cnc(C(=O)Nc4ccc(C(=O)N5CCC(C(=O)N6CC[N+](CC(=O)O)(CC7CNC7)CC6)CC5)c(Cl)c4)n3C)c(F)c2F)c1C [Example B22, 2-[1-(azetidin-3-ylmethyl)-4-[1-[2-chloro-4-[[5-[2,3-difluoro-4-[1-(2-methoxyethyl)-5-methyl-pyrazol-4-yl]phenyl]-1-methyl-imidazole-2-carbonyl]amino]benzoyl]piperidine-4-carbonyl]piperazin-1-ium-1-yl]acetic acid; formate] | 
12 | 98 | COCCn1ncc(-c2ccc(-c3cnc(C(=O)Nc4ccc(C(=O)N5CCC(C(=O)N6CC[N+](C)(CC7CNC7)CC6)CC5)c(Cl)c4)n3C)c(F)c2F)c1C [Example B23, N-[4-[4-[4-(azetidin-3-ylmethyl)-4-methyl-piperazin-4-ium-1-carbonyl]piperidine-1-carbonyl]-3-chloro-phenyl]-5-[2,3-difluoro-4-[1-(2-methoxyethyl)-5-methyl-pyrazol-4-yl]phenyl]-1-methyl-imidazole-2-carboxamide; formate] | 
13 | 95 | COCCn1ncc(-c2ccc(-c3cnc(C(=O)Nc4ccc(C(=O)N5CCC(C(=O)N6CC[N+](CC(N)=O)(CC7CNC7)CC6)CC5)c(Cl)c4)n3C)c(F)c2F)c1C [Example B24, N-[4-[4-[4-(2-amino-2-oxo-ethyl)-4-(azetidin-3-ylmethyl)piperazin-4-ium-1-carbonyl]piperidine-1-carbonyl]-3-chloro-phenyl]-5-[2,3-difluoro-4-[1-(2-methoxyethyl)-5-methyl-pyrazol-4-yl]phenyl]-1-methyl-imidazole-2-carboxamide; 2,2,2-trifluoroacetate; 2,2,2-trifluoroacetic acid] | 
